Here are results for one compound from ChEMBL document CHEMBL3352178, “Antidepressant- and anxiolytic-like activity of 7-phenylpiperazinylalkyl-1,3-dimethyl-purine-2,6-dione derivatives with diversified 5-HT₁A receptor functional profile” (Bioorg Med Chem, 2015).

Data set [1] deals with Rattus norvegicus. Nature of the data set: Induction of lower lip retraction in rat assessed as lower lip retraction scores at 5 mg/kg, ip dosed 15 mins before test. The conditions noted are these: route intraperitoneal. In kind it is functional.
Data set [2] addresses 5-hydroxytryptamine receptor 2A (Rattus norvegicus, UniProt P14842). Nature of the data set: Displacement of [3H]-ketanserin from 5-HT2AR in rat cortex.
For data set [3], the system named is Mus musculus. Nature of the data set: Induction of hypothermia in mouse assessed as change in body temperature at 5 mg/kg, ip administered 30 mins before test and measured 60 mins post dose. In kind it is functional, organism-based. More on the design: dose 5 mg/kg.
Data set [4] relates to Mus musculus. Nature of the data set: Antidepressant-like activity in mouse assessed as reduction in immobility time at 0.625 mg/kg, ip dosed 60 mins before test by forced swim test. Also noted: scale not given: the % may be the effect or the level left. The conditions noted are these: route intraperitoneal. In kind it is functional.
The target of data set [5] is 5-hydroxytryptamine receptor 7 (Homo sapiens, UniProt P34969). Nature of the data set: Displacement of [3H]]-5-CT from human cloned 5-HT7R expressed in HEK293 cells. The class given is cell-based.
Data set [6] concerns Mus musculus. Nature of the data set: Induction of hypothermia in mouse assessed as change in body temperature at 10 mg/kg, ip administered 30 mins before test and measured 120 mins post dose. The class given is functional, organism-based. Also noted: dose 10 mg/kg.
For data set [7], the target named is T1, 5-hydroxytryptamine receptor 1A (Rattus norvegicus, UniProt P19327).
T1 sequence (P19327 whole entry): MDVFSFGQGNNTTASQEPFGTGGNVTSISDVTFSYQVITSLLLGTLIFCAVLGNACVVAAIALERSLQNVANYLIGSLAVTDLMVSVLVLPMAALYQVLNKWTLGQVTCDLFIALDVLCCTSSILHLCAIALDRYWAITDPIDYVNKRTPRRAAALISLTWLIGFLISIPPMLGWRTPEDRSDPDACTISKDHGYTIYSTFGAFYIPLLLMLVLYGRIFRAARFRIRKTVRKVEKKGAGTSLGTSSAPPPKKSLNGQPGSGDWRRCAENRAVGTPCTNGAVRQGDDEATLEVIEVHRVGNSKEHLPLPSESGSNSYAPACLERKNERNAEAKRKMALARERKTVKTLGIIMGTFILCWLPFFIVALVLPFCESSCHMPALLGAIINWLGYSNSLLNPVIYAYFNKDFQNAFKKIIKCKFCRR
Nature of the data set: Displacement of [3H]-8-OH-DPAT from 5-HT1AR in rat hippocampus. In kind it is tissue-based.

In data set [8] the test system is Mus musculus. Nature of the data set: Induction of hypothermia in mouse assessed as change in body temperature at 5 mg/kg, ip administered 30 mins before test and measured 90 mins post dose. The class given is functional, organism-based. More on the design: dose 5 mg/kg.
The test system of data set [9] is Mus musculus. Nature of the data set: Antidepressant-like activity in mouse assessed as reduction in immobility time at 1.25 mg/kg, ip dosed 60 mins before test by forced swim test. The class given is functional. Also noted: scale not given: the % may be the effect or the level left. The conditions noted are these: route intraperitoneal.
Data set [10] has as its system Rattus norvegicus. Nature of the data set: Inhibition of 8-OH-DPAT-induced lower lip retraction in rat assessed as lower lip retraction scores at 5 mg/kg, ip dosed 45 mins before 8-OH-DPAT. In kind it is functional. The conditions noted are these: route intraperitoneal.
The subject of data set [11] is Mus musculus. Nature of the data set: Induction of hypothermia in mouse assessed as change in body temperature at 10 mg/kg, ip administered 30 mins before test and measured 60 mins post dose. In kind it is functional, organism-based. More on the design: dose 10 mg/kg.
For data set [12], the target named is 5-hydroxytryptamine receptor 6 (Homo sapiens, UniProt P50406). Nature of the data set: Displacement of [3H]LSD from human cloned 5-HT6R expressed in HEK293 cells. In kind it is cell-based.
Data set [13] concerns Mus musculus. Nature of the data set: Induction of hypothermia in mouse assessed as change in body temperature at 10 mg/kg, ip administered 30 mins before test and measured 60 mins post dose in presence of 0.3 mg/kg, sc 5HT1A receptor antagonist WAY 100635. In kind it is functional, organism-based.
The target in data set [14] is D(2) dopamine receptor (Rattus norvegicus, UniProt P61169). Nature of the data set: Displacement of [3H]-spiperone from dopamine D2 receptor in rat striatum.
Data set [15] relates to Mus musculus. Nature of the data set: Effect on spontaneous locomotor activity in ip dosed mouse during 2 to 6 mins. The class given is ADME, organism-based. The conditions noted are these: in vivo.
In data set [16] the test system is Mus musculus. Nature of the data set: Induction of hypothermia in mouse assessed as change in body temperature at 5 mg/kg, ip administered 30 mins before test and measured 120 mins post dose. In kind it is functional, organism-based. More on the design: dose 5 mg/kg.
Data set [17] concerns Mus musculus. Nature of the data set: Induction of hypothermia in mouse assessed as change in body temperature at 10 mg/kg, ip administered 30 mins before test and measured 90 mins post dose. The class given is functional, organism-based. Also noted: dose 10 mg/kg.
Data set [18] concerns Mus musculus. Nature of the data set: Antidepressant-like activity in mouse assessed as reduction in immobility time at 0.625 mg/kg, ip dosed 60 mins before test in presence of 0.3 mg/kg, sc 5HT1A receptor antagonist WAY 100635 by forced swim test. In kind it is functional, organism-based.
For data set [19], the system named is Rattus norvegicus. Nature of the data set: Induction of lower lip retraction in rat assessed as lower lip retraction scores at 10 mg/kg, ip dosed 15 mins before test. In kind it is functional. The conditions noted are these: route intraperitoneal.
In data set [20] the test system is Mus musculus. Nature of the data set: Induction of hypothermia in mouse assessed as change in body temperature at 10 mg/kg, ip administered 30 mins before test and measured 30 mins post dose in presence of 0.3 mg/kg, sc 5HT1A receptor antagonist WAY 100635. The class given is functional, organism-based.
Data set [21] has as its system Mus musculus. Nature of the data set: Induction of hypothermia in mouse assessed as change in body temperature at 5 mg/kg, ip administered 30 mins before test and measured 30 mins post dose. The class given is functional, organism-based. More on the design: dose 5 mg/kg.
In data set [22] the test system is Rattus norvegicus. Nature of the data set: Induction of lower lip retraction in rat assessed as lower lip retraction scores at 10 mg/kg, ip dosed 45 mins after 0.3 mg/kg, sc 5HT1A receptor antagonist WAY 100635. The class given is functional.
For data set [23], the system named is Mus musculus. Nature of the data set: Induction of hypothermia in mouse assessed as change in body temperature at 10 mg/kg, ip administered 30 mins before test and measured 30 mins post dose. In kind it is functional, organism-based. Also noted: dose 10 mg/kg.

pKi: −log10 of the molar value. The source made the active and inactive calls. No cut-off for these calls is given here.

5-hydroxytryptamine receptor 6, sequence (P50406 whole entry): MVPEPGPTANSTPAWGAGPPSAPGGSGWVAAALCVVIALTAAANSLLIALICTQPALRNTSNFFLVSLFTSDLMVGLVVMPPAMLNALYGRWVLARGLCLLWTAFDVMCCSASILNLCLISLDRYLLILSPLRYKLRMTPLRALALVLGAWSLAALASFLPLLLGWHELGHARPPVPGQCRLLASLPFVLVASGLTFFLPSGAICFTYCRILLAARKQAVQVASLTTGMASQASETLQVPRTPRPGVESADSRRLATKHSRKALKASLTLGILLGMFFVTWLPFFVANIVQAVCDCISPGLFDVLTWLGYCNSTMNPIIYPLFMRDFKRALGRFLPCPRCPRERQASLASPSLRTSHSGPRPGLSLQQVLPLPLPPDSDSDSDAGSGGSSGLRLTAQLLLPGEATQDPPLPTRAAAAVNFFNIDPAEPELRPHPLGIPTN
5-hydroxytryptamine receptor 7, sequence (P34969 whole entry): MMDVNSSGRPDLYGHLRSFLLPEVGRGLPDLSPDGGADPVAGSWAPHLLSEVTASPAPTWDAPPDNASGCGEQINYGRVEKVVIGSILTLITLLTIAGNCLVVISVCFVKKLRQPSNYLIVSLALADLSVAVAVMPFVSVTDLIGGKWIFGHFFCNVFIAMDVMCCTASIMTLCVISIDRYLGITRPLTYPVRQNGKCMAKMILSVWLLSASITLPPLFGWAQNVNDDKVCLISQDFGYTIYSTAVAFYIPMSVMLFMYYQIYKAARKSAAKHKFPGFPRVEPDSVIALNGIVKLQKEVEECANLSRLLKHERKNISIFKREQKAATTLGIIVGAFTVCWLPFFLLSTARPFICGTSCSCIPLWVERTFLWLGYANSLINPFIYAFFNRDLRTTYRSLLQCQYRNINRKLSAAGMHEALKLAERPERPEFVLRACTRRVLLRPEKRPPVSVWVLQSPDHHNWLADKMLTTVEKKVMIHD
5-hydroxytryptamine receptor 2A, sequence (P14842 whole entry): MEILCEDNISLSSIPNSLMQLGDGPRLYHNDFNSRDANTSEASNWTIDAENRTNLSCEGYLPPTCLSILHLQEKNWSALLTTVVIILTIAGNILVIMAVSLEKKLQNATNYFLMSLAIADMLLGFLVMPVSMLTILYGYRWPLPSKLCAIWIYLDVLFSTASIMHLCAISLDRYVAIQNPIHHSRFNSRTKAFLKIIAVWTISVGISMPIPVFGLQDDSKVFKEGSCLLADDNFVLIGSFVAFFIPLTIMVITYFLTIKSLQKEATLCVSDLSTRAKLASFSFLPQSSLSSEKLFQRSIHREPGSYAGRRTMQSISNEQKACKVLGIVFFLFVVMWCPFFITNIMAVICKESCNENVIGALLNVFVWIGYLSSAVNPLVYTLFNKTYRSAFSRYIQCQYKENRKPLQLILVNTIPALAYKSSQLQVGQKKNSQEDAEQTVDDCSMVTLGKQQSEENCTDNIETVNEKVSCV
D(2) dopamine receptor, sequence (P61169 whole entry): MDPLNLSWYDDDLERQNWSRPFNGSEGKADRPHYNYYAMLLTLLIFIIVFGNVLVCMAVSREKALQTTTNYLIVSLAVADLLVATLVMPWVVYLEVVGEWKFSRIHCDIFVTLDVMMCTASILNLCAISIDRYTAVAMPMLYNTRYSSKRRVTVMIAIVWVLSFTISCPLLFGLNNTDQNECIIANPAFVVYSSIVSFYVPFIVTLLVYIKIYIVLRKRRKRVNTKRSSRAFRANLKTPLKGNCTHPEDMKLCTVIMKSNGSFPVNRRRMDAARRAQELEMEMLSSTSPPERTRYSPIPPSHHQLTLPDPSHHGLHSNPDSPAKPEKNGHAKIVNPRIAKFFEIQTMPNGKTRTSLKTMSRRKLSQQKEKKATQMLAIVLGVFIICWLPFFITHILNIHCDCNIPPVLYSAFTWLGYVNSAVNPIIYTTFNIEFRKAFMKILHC

As to `COc1ccccc1N1CCN(CCCCCn2cnc3c2c(=O)n(C)c(=O)n3C)CC1.Cl`, the Activity in data set [1] is 0.6; in data set [4] it was 30%; in data set [9], 35%; in [10] it was 2.1; in [15] it was “Non-toxic”; in data set [19], 0.8. In addition, in [22], the Activity is given as 0.1. Besides, the pKi in data set [2] is 6.22; in data set [5] it was 6.53; in data set [7] it was 9.00; in data set [12] it was 5.05; in [14] it was 7.48. Further, the deltaT in data set [3] is -0.2 °C; in data set [6] it was -0.4 °C; in data set [8], 0.3 °C; in data set [11], -1 °C; in data set [13], -1.6 °C; in data set [16], 0.3 °C. The deltaT in data set [17] was -0.9 °C; in [20], -1.8 °C; in data set [21], -1 °C; in data set [23], -2.1 °C. In addition, the result in [18] was inactive.
